Here are results for 24 compounds from PubChem BioAssay AID1259408 (Genetic Toxicology Data Bank (GENE-TOX), 2018).

The subject of this series is GENE-TOX genotoxicity assays, various organisms and cells. Description: GENE-TOX mutagenicity studies. As to conditions: for call: Assay Type: In vivo carcinogenicity studies.
Where [1] appears, read: Species/Cell Type: Mouse prostate cells, Assay Type: Cell transformation, Assay Code: CTM+, Evaluation Type: Evaluation A (Pre-1980).
The mark [2] stands for this setting: Species/Cell Type: Neurospora crassa, Assay Type: Forward gene mutation, Assay Code: NEF-, Evaluation Type: Evaluation A (Pre-1980).
Setting [3] is: Species/Cell Type: Bacillus subtilis (H17 vs M45), Assay Type: Rec-assay, spot test, DNA effects (bacterial DNA repair), Assay Code: REW+, Evaluation Type: Evaluation A (Pre-1980).
Where [4] appears, read: Species/Cell Type: Nonhuman, Assay Code: CCG+L, Evaluation Type: Evaluation A (Pre-1980).
Where [5] appears, read: Species/Cell Type: Mouse, Sex: Male, Assay Type: Sperm morphology, Assay Code: SPI-, Evaluation Type: Evaluation A (Pre-1980).
Setting [6] is: Species/Cell Type: Nonhuman, Assay Code: CCG+, Evaluation Type: Evaluation A (Pre-1980).
Where [7] appears, read: Species/Cell Type: Drosophila melanogaster, Assay Type: Sex-linked recessive lethal gene mutation, Assay Code: SRL+, Evaluation Type: Evaluation A (Pre-1980).
The mark [8] stands for this setting: Species/Cell Type: Salmonella typhimurium (one or more of the five standard strains: TA98, TA100, TA1535, TA1537, and TA1538), Assay Type: Histidine reverse gene mutation, Ames assay, Assay Code: SAL+*, Activation: With metabolic activation, Evaluation Type: Evaluation A (Pre-1980).
[9] abbreviates: Species/Cell Type: Allium cepa, Assay Type: Chromosome aberrations, Assay Code: ALC+, Evaluation Type: Evaluation A (Pre-1980).
Setting [10] is: Species/Cell Type: Mammalian polychromatic erythrocytes, Assay Type: Micronucleus test, chromosome aberrations, Assay Code: MNTT, Evaluation Type: Evaluation B (Post-1980).
The mark [11] stands for this setting: Species/Cell Type: Nonhuman, Assay Type: Sister-chromatid exchange (SCE) in vitro, Assay Code: SC2+, Evaluation Type: Evaluation B (Post-1980).

Calls of active or inactive are those of the source. How the calls were made is not given here.

In the case of `Cc1ccc2cc3c(cc(O)c4ccccc43)c3c2c1CC3`, the mutagenic call under setting [1] is “active; positive”.
Turning to `O=C(CCc1ccc([N+](=O)[O-])o1)NC1CCCCC1`, the mutagenic call under setting [2] was “inactive; negative”.
On to `O=[N+]([O-])c1ccc(-c2cscn2)o1`, for which the mutagenic call is “active; positive” under setting [3]; “active; positive” (Species/Cell Type: Salmonella typhimurium (one or more of the five standard strains: TA98, TA100, TA1535, TA1537, and TA1538), Assay Type: Histidine reverse gene mutation, Ames assay, Assay Code: SAL+, Evaluation Type: Evaluation A (Pre-1980)); “inactive; negative” (Species/Cell Type: Syrian hamster embryo (SHE) cells, Assay Type: Cell transformation, clonal assay, Assay Code: CTC-, Evaluation Type: Evaluation A (Pre-1980)). For the same compound, under setting [4], the call was “active; positive”.
In the case of `ClC(Cl)(Cl)Cl`, the mutagenic call is “inactive; negative” under setting [5]; “active; positive” (Species/Cell Type: Saccharomyces cerevisiae, Assay Type: Mitotic recombination or gene conversion, Assay Code: YEC+, Evaluation Type: Evaluation A (Pre-1980)); “active; positive” (Species/Cell Type: Saccharomyces cerevisiae, Assay Type: Mitotic recombination or gene conversion, Assay Code: YEH+, Evaluation Type: Evaluation A (Pre-1980)); “active; positive” (Species/Cell Type: Saccharomyces cerevisiae, Assay Type: Reverse gene mutation, Assay Code: YER+, Evaluation Type: Evaluation A (Pre-1980)); “inactive; negative” (Species/Cell Type: Salmonella typhimurium (one or more of the five standard strains: TA98, TA100, TA1535, TA1537, and TA1538), Assay Type: Histidine reverse gene mutation, Ames assay, Assay Code: SAL-, Evaluation Type: Evaluation A (Pre-1980)). Besides, the call under setting [6] was “active; positive”.
For `CCCNP(=O)(N1CC1)N1CC1`, the mutagenic call by setting is: under setting [7], “active; positive”; (Species/Cell Type: Nonhuman, Assay Type: Chromosome aberrations in vitro, Assay Code: CY&+, Evaluation Type: Evaluation A (Pre-1980)) “active; positive”; (Species/Cell Type: Schizosaccharomyces pombe, Assay Type: Reverse gene mutation, Assay Code: YEZ+, Evaluation Type: Evaluation A (Pre-1980)) “active; positive”.
Turning to `CCC(=O)O[C@H]1CC[C@H]2[C@@H]3CCC4=CC(=O)CC[C@]4(C)[C@H]3CC[C@]12C`, the mutagenic call (Species/Cell Type: Human, Sex: Male, Assay Type: Sperm morphology, Assay Code: SPH+, Evaluation Type: Evaluation A (Pre-1980)) was “active; positive”. For the same compound, the call under setting [6] was “active; positive”.
As for `O=CNc1nc(-c2ccc([N+](=O)[O-])[nH]2)cs1`, the mutagenic call (Species/Cell Type: Salmonella typhimurium (one or more of the five standard strains: TA98, TA100, TA1535, TA1537, and TA1538), Assay Type: Histidine reverse gene mutation, Ames assay, Assay Code: SALT, Evaluation Type: Evaluation A (Pre-1980)) is listed as “no conclusion”.
Consider `C1=Cc2cc3cccc4ccc5ccc1c2c5c43`, for which the call under setting [4] was “active; positive”. Also, under setting [8], the mutagenic call is “active; positive”.
`CC1C=Cc2c1ccc1c2ccc2ccccc21` (configuration not stated): the mutagenic call under setting [8] was “active; positive”.
Consider `O=C1C=C(N2CC2)C(=O)C=C1N1CC1`, for which the mutagenic call under setting [7] is “active; positive”.
Turning to `O=S(=O)(O)c1cccc(Nc2nc(Nc3ccc(/C=C/c4ccc(Nc5nc(Nc6cccc(S(=O)(=O)O)c6)nc(N(CCO)CCO)n5)cc4S(=O)(=O)O)c(S(=O)(=O)O)c3)nc(N(CCO)CCO)n2)c1`, the mutagenic call (Species/Cell Type: Nonhuman, Assay Type: Sister-chromatid exchange (SCE) in vitro, Assay Code: SC2T, Evaluation Type: Evaluation A (Pre-1980)) is recorded as “no conclusion”.
On to `COP(=S)(OC)Oc1cc(Cl)c(Br)cc1Cl`, for which, where the note is “Species/Cell Type: Drosophila melanogaster, Assay Type: Sex-linked recessive lethal gene mutation, Assay Code: SRLT, Evaluation Type: Evaluation A (Pre-1980)”, the mutagenic call is recorded as “no conclusion”.
In the case of `Nc1ccccc1N`, the mutagenic call is, setting by setting: under setting [9], “active; positive”; (Species/Cell Type: Mammalian polychromatic erythrocytes, Assay Type: Micronucleus test, chromosome aberrations, Assay Code: MNT+, Evaluation Type: Evaluation B (Post-1980)) “active; positive”; (Species/Cell Type: Neurospora crassa, Assay Type: Aneuploidy, chromosome aberrations, Assay Code: NEN-, Evaluation Type: Evaluation A (Pre-1980)) “inactive; negative”; (Species/Cell Type: Rodents, Sex: Male, Assay Type: Dominant lethal test, Assay Code: DLT-, Evaluation Type: Evaluation A (Pre-1980)) “inactive; negative”.
Turning to `CC(=O)NNC(C)=O`, the mutagenic call under setting [10] is “no conclusion”.
As for `O=C(OCC1=CCN2CC[C@@H](OC(=O)c3ccc4c(c3)OCO4)[C@@H]12)c1ccc2c(c1)OCO2`, under setting [9], the mutagenic call was “active; positive”.
As to `C[C@@H]1Cc2c(Cl)cc(C(=O)NC(Cc3ccccc3)C(=O)O)c(O)c2C(=O)O1` (some centres not stated), the mutagenic call (Species/Cell Type: Nonhuman, Assay Type: Sister-chromatid exchange (SCE) in vivo, Assay Code: SC3-, Evaluation Type: Evaluation B (Post-1980)) was “inactive; negative”.
In the case of `Cc1c2ccccc2c(C)c2ccccc12`, the mutagenic call runs as follows: (Species/Cell Type: Mammalian polychromatic erythrocytes, Assay Type: Micronucleus test, chromosome aberrations, Assay Code: MNTT, Evaluation Type: Evaluation A (Pre-1980)) “no conclusion”; under setting [5], “inactive; negative”; under setting [11], “active; positive”; under setting [8], “active; positive”.
As to `NNc1cc2c(nn1)CCN(C(=O)c1ccccc1)C2`, where the note is “Species/Cell Type: Nonhuman, Assay Type: Sister-chromatid exchange (SCE) in vivo, Assay Code: SC3+, Evaluation Type: Evaluation B (Post-1980)”, the mutagenic call is “active; positive”.
On to `CN(C)CCCN1c2ccccc2Sc2ccccc21`, for which the mutagenic call (Species/Cell Type: Nonhuman, Assay Type: Sister-chromatid exchange (SCE) in vitro, Assay Code: SC2+D, Dose Response: With dose response, Evaluation Type: Evaluation A (Pre-1980)) is “active; positive”.
Consider `O=C(/C=C/c1ccc([N+](=O)[O-])o1)NC1CCCCC1`, for which, under setting [2], the mutagenic call was “inactive; negative”.
For the compound `Cc1cc(O)c2c(c1)C(=O)C13C(=C2O)C(=O)C2C(O)C1C1C(O)C3C(=O)C3=C(O)c4c(O)cc(C)cc4C(=O)C321` (configuration not stated), the mutagenic call under setting [3] was “active; positive”.
With `CN(C)CCNc1ccc(NCCN(C)C)c2c1C(=O)c1c(O)ccc(O)c1C2=O`, the mutagenic call under setting [11] is “active; positive”.
As to `OCc1c2c(cc3ccccc13)-c1ccccc1C1OC21` (configuration not stated), the mutagenic call under setting [1] was “active; positive”.
As for `COCCc1ccc(OCC(O)CNC(C)C)cc1` (configuration not stated), the mutagenic call under setting [10] is “no conclusion”.
